The record followed here is patent US12630528B2, “Amino aryl derivative useful as diacylglycerol acyltransferase 2 inhibitor and use thereof” (LG CHEM, LTD., priority 2019, dated 2026).

The term IC50 denotes the concentration needed to halve the response being measured.

The experiment concerns the target T1, human DGAT2 (Homo sapiens, UniProt Q96PD7).
T1 construct: FLAG (DYKDDDDK); made in house; host or cells: Sf-21 insect cells (BacPAK baculovirus system); membrane fraction used
T1 sequence (Q96PD7 1-388): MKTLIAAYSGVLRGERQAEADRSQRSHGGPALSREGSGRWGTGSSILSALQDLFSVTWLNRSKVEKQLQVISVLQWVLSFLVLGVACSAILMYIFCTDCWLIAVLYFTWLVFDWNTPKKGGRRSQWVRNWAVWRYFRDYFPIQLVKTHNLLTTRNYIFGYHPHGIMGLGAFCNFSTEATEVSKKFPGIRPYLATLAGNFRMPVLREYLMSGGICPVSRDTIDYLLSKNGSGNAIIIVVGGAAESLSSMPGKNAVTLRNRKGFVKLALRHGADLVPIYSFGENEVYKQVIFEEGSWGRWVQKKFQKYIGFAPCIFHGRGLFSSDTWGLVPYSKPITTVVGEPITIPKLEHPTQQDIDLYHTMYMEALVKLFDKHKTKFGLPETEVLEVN
As to the kind of experiment: DGAT2 enzyme activity inhibition, Phospholipid FlashPlate SPA. As to conditions: recombinant human DGAT2 membrane protein from Sf-21 cells; inhibition of [14C]-TG production; 37° C. It is filed as biochemical. The method, boiled down:
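Sf-21 membranes expressing recombinant human DGAT2 (2 μg) preincubated with compound (3 nM–10 μM, 1% DMSO) and 50 μM 1,2 sn-oleoyl glycerol, 20 min at 37 °C, then 1 μM [14C]oleoyl-CoA for 15 min. [14C]-TG counted by SPA; inhibition as % of untreated.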
For the compound `CCOc1ccccc1O[C@@H]1CCCN(c2cncc(Nc3nccc(Oc4ccc(CC(=O)O)cc4)n3)n2)C1` [Example 162, (R)-2-(4-((2-((6-(3-(2-ethoxyphenoxy)piperidin-1-yl)pyrazin-2-yl)amino)pyrimidin-4-yl)oxy)phenyl)acetic Acid], the IC50 worked out at 230 nM.

As to `CCOc1cccnc1O[C@@H]1CCCN(c2cncc(Nc3nccc(Oc4ccc(CC(=O)O)cc4)n3)n2)C1` [Example 163], the IC50 was found to be 860 nM.

In the case of `CCOc1ccccc1O[C@@H]1CCCN(c2cncc(Nc3ncc(F)c(-c4cccc(CC(C)(C)C(=O)O)c4)n3)n2)C1` [Example 164, (R)-3-(3-(2-((6-(3-(2-ethoxyphenoxy)piperidin-1-yl)pyrazin-2-yl)amino)-5-fluoropyrimidin-4-yl)phenyl)-2,2-dimethylpropanoic Acid], the IC50 was 320 nM.

Consider `CCOc1cccnc1O[C@@H]1CCCN(c2cncc(Nc3ncc(C(F)(F)F)c(-c4cccc(CC(C)(C)C(=O)O)c4)n3)n2)C1` [Example 165, (R)-3-(3-(2-((6-(3-((3-ethoxypyridin-2-yl)oxy)piperidin-1-yl)pyrazin-2-yl)amino)-5-(trifluoromethyl)pyrimidin-4-yl)phenyl)-2,2-dimethylpropanoic Acid], for which the 50% inhibitory concentration (IC50) was determined as 64 nM.

As for `CCOc1cccnc1O[C@@H]1CCCN(c2cncc(Nc3nc(-c4cccc(CC(C)(C)C(=O)O)c4)cc(C(F)(F)F)n3)n2)C1` [Example 166, (R)-3-(3-(2-((6-(3-((3-ethoxypyridin-2-yl)oxy)piperidin-1-yl)pyrazin-2-yl)amino)-6-(trifluoromethyl)pyrimidin-4-yl)phenyl)-2,2-dimethylpropanoic Acid], the IC50 worked out at 470 nM.

On to `CCOc1ccccc1O[C@@H]1CCCN(c2cncc(Nc3nc(-c4cccc(CC(C)(C)C(=O)O)c4)cc(C(F)(F)F)n3)n2)C1` [Example 167, (R)-3-(3-(2-((6-(3-(2-ethoxyphenoxy)piperidin-1-yl)pyrazin-2-yl)amino)-6-(trifluoromethyl)pyrimidin-4-yl)phenyl)-2,2-dimethylpropanoic Acid], for which the IC50 amounted to 670 nM.

As for `CCOc1ccccc1O[C@@H]1CCCN(c2cncc(Nc3ccnc(-c4cccc(C(C)(C)C(=O)O)c4)n3)n2)C1` [Example 168, (R)-2-(3-(4-((6-(3-(2-ethoxyphenoxy)piperidin-1-yl)pyrazin-2-yl)amino)pyrimidin-2-yl)phenyl)-2-methylpropanoic Acid], the concentration for half-maximal inhibition (IC50) was 420 nM.

In the case of `CCOc1ccccc1O[C@@H]1CCCN(c2cncc(Nc3ccnc(-c4ccc(C(C)(C)C(=O)O)cc4)n3)n2)C1` [Example 169, (R)-2-(4-(4-((6-(3-(2-ethoxyphenoxy)piperidin-1-yl)pyrazin-2-yl)amino)pyrimidin-2-yl)phenyl)-2-methylpropanoic Acid], the concentration for half-maximal inhibition (IC50) amounted to 260 nM.

For the compound `CCOc1ccccc1O[C@@H]1CCCN(c2cncc(Nc3ccnc(-c4cccc(CC(C)(C)C(=O)O)c4)n3)n2)C1` [Example 170, (R)-3-(3-(4-((6-(3-(2-ethoxyphenoxy)piperidin-1-yl)pyrazin-2-yl)amino)pyrimidin-2-yl)phenyl)-2,2-dimethylpropanoic Acid], the IC50 was determined as 250 nM.

As to `CCOc1cccnc1O[C@@H]1CCCN(c2cncc(Nc3ccnc(-c4cccc(CC(C)(C)C(=O)O)c4)n3)n2)C1` [Example 171, (R)-3-(3-(4-((6-(3-((3-ethoxypyridin-2-yl)oxy)piperidin-1-yl)pyrazin-2-yl)amino)pyrimidin-2-yl)phenyl)-2,2-dimethylpropanoic Acid], the IC50 amounted to 240 nM.

As to `CCOc1ccccc1O[C@@H]1CCCN(c2cncc(Nc3ccnc(-c4ccc(CC(C)(C)C(=O)O)cc4)n3)n2)C1` [Example 172, (R)-3-(4-(4-((6-(3-(2-ethoxyphenoxy)piperidin-1-yl)pyrazin-2-yl)amino)pyrimidin-2-yl)phenyl)-2,2-dimethylpropanoic Acid], the concentration for half-maximal inhibition (IC50) worked out at 250 nM.

`CCOc1cccnc1O[C@@H]1CCCN(c2cncc(Nc3ccnc(-c4ccc(CC(C)(C)C(=O)O)cc4)n3)n2)C1` [Example 173, (R)-3-(4-(4-((6-(3-((3-ethoxypyridin-2-yl)oxy)piperidin-1-yl)pyrazin-2-yl)amino)pyrimidin-2-yl)phenyl)-2,2-dimethylpropanoic Acid]: the half-inhibitory concentration (IC50) turned out to be 220 nM.

Turning to `CCOc1ccccc1O[C@@H]1CCCN(c2cncc(Nc3ccnc(-c4cccc(OC(C)(C)C(=O)O)c4)n3)n2)C1` [Example 174, (R)-2-(3-(4-((6-(3-(2-ethoxyphenoxy)piperidin-1-yl)pyrazin-2-yl)amino)pyrimidin-2-yl)phenoxy)-2-methylpropanoic Acid], the IC50 stood at 480 nM.

Turning to `CCOc1cccnc1O[C@@H]1CCCN(c2cncc(Nc3ccnc(-c4cccc(OC(C)(C)C(=O)O)c4)n3)n2)C1` [Example 175, (R)-2-(3-(4-((6-(3-((3-ethoxypyridin-2-yl)oxy)piperidin-1-yl)pyrazin-2-yl)amino)pyrimidin-2-yl)phenoxy)-2-methylpropanoic Acid], the half-maximal inhibitory concentration (IC50) was 1100 nM.

Regarding `CCOc1ccccc1O[C@@H]1CCCN(c2cncc(Nc3nccc(-c4cccc(OC(C)(C)C(=O)O)c4)n3)n2)C1` [Example 176, (R)-2-(3-(2-((6-(3-(2-ethoxyphenoxy)piperidin-1-yl)pyrazin-2-yl)amino)pyrimidin-4-yl)phenoxy)-2-methylpropanoic Acid], the IC50 was 590 nM.

Regarding `CCOc1cc(F)ccc1O[C@@H]1CCCN(c2cncc(Nc3cccc(-c4ccc(OC(C)(C)C(=O)O)cc4)n3)n2)C1` [Example 177, (R)-2-(4-(6-((6-(3-(2-ethoxy-4-fluorophenoxy)piperidin-1-yl)pyrazin-2-yl)amino)pyridin-2-yl)phenoxy)-2-methylpropanoic Acid], the concentration for half-maximal inhibition (IC50) was 380 nM.

With `CCOc1ccccc1O[C@@H]1CCCN(c2cncc(Nc3ccnc(-c4ccc(OC(C)(C)C(=O)O)cc4)n3)n2)C1` [Example 178, (R)-2-(4-(4-((6-(3-(2-ethoxyphenoxy)piperidin-1-yl)pyrazin-2-yl)amino)pyrimidin-2-yl)phenoxy)-2-methylpropanoic Acid], the IC50 is 490 nM.

`CCOc1cccnc1O[C@@H]1CCCN(c2cncc(Nc3ccnc(-c4ccc(OC(C)(C)C(=O)O)cc4)n3)n2)C1` [Example 179, (R)-2-(4-(4-((6-(3-((3-ethoxypyridin-2-yl)oxy)piperidin-1-yl)pyrazin-2-yl)amino)pyrimidin-2-yl)phenoxy)-2-methylpropanoic Acid]: the IC50 is 590 nM.

As for “(R)-2-(4-((6-(3-(2-ethoxyphenoxy)pyridin-1-yl)pyrazin-2-yl)amino)phenyl)-2-methylpropanoic Acid [Example 28]”, the IC50 was > 10000 nM.
